In patent US20170342451A1, “BIOSYNTHESIS OF PACLITAXEL INTERMEDIATE” (Board of Trustees of Michigan State University, priority 2012, published 2017):

Key:
TycA-S563A [1] = molecular target: T1, TycA-S563A (Brevibacillus parabrevis, UniProt P09095, S563A); settings: CoA with (S)-α-Phe as cosubstrate; for kcat^CoA: turnover with CoA at apparent saturation
Description: Under steady-state conditions, (S)-α-phenylalanine, (R)-β-phenylalanine, and (2R,3S)-phenylisoserine at 5, 10, 20, 40, 80, 160, 250, 500, 1000 and 2000 μM were separately incubated with TycA or TycA-S563A (20 μg) for 30 min. At the end of each reaction, and prior to mass spectrometry analysis, acetyl CoA (1 μM) was added as the internal standard to each sample to correct for variations of the analyte. The products of the enzyme-catalyzed reaction were quantified by a liquid chromatography multiple reaction monitoring (LC-ESI-MRM) mass spectrometry technique (Anderson & Hunter, Mol. Cell. Proteomics 5: 573-588 (2006)) on the Quattro-Premier Electro-Spray Mass Spectrometer coupled with Acquity® UPLC system fitted with a C18 Ascentis Express column (2.5×50 mm, 2.7 μm) at 30° C. An aliquot (5 μL) of each sample was loaded onto the column and the analytes were eluted with a solvent gradient of acetonitrile (Solvent A) in 0.05% triethylamine in distilled water (Solvent B). Elution was held at 2.5% Solvent A for 3.17 min, increased to 100% Solvent A over 5 sec with a 2-min hold, and then returned to 2.5% Solvent A over 5 sec with a 50-sec hold. The flow rate employed was 0.4 mL/min. The effluent from the chromatography column was directed to the mass spectrometer where the first quadrupole mass analyzer (in negative ion mode) was set to select for the molecular ion of a biosynthesized acyl CoA product. […]
The KM values of TycA and TycA-S563A for CoA were assessed by incubating each enzyme separately with (S)-α-phenylalanine (1 mM), MgCl2 (3 mM), ATP (1 mM), and CoA at 0.05, 0.1, 0.2, 0.4, 0.8, 1.6, 3.2, 6.4, 12.8 and 25.6 mM at 31° C. for 20 min. […] The products of the enzyme-catalyzed reaction were quantified by LC-ESI-MRM, and the monitored fragment ion (m/z 408) derived from the CoA moiety of the thioester analytes in the effluent was quantified identically to the procedure described earlier herein.

TycA-S563A [2] = molecular target: T1, TycA-S563A; assay type: biochemical, Brevibacillus brevis; set-up: The T-domain mutant TycA-S563A was also subcloned into a pSU18 vector and heterologously expressed as a His6-fusion; made in house; host or cells: Escherichia coli BL21(DE3)
Description: Each (S)-α-phenylalanine, (R)-β-phenylalanine, and (2R,3S)-phenylisoserine substrate (at 1 mM) was separately incubated (31° C.) in 100-μL reactions containing 100 mM HEPES (pH 8.0), ATP (1 mM), MgCl2 (3 mM) and TycA or TycA-S563A (20 μg in 0.1-mL assays) to establish steady-state conditions relative to protein concentration and time. Under steady-state conditions, each (S)-α-phenylalanine, (R)-β-phenylalanine, and (2R,3S)-phenylisoserine substrate, at ten concentration intervals from 5 to 1000 μM (in duplicate), was separately incubated with TycA or TycA-S563A for 1 min at 31° C. The reactions were acid-quenched (pH 3 with 10% formic acid), and the biosynthetic products were quantified by LC-ESI-MRM mass spectrometry (Anderson and Hunter, 2006) on the LC-QP/ESI-MS/MS fitted with a C18 Ascentis Express column (2.5×50 mm, 2.7 μm) at 30° C. An aliquot (5 μL) of each sample was loaded onto the column and the analytes were eluted with the CoA-Elution Gradient (see procedures described above). The effluent from the chromatography column was directed to the mass spectrometer where the first quadrupole mass analyzer (in negative ion mode) was set to select for the molecular ion of a biosynthesized (S)-α-phenylalanine-AMP, (R)-β-phenylalanine-AMP, and (2R,3S)-phenylisoserine-AMP. […]

T1 sequence (P09095 other isoform, or with tags, fused parts or gaps S563A): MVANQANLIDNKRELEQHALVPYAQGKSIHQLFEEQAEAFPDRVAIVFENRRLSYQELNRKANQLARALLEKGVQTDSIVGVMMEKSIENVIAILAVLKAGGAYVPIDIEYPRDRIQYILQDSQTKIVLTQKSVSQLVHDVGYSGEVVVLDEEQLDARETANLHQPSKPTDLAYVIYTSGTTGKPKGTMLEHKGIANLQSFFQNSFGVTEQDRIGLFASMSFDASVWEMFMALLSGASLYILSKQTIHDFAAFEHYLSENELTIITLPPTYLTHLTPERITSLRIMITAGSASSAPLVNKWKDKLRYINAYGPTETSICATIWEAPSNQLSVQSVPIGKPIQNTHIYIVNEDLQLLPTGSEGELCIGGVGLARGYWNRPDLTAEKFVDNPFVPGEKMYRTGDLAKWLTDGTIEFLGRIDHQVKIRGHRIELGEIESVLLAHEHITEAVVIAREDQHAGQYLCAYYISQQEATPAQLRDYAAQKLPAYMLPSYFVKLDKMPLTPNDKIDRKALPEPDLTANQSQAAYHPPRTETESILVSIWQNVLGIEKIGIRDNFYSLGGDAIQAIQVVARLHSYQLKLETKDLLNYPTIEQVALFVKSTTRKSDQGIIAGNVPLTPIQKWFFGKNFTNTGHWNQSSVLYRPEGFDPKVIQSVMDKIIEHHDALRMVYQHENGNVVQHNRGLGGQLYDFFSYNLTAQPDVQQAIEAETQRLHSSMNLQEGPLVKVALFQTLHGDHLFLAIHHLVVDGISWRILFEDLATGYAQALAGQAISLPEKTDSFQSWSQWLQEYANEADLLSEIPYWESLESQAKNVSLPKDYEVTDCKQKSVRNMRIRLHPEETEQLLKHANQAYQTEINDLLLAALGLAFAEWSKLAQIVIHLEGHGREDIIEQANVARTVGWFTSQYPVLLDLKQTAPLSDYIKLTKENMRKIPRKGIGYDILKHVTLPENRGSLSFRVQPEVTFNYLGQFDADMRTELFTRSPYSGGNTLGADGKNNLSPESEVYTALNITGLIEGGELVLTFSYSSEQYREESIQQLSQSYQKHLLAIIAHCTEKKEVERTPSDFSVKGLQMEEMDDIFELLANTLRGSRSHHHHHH

SMILES: N[C@@H](c1ccccc1)[C@@H](O)C(=O)O [(2R,3S)-PheIso, (2R,3S)-phenylisoserine]
- Km (TycA-S563A [1]; CoA 1 mM, ATP 1 mM, MgCl2 3 mM, 31° C.): 191 ± 10 µM
- kcat^CoA (TycA-S563A [1]): 0.00717 ± 0.00017 s⁻¹

SMILES: N[C@H](CC(=O)O)c1ccccc1 [(R)-β-Phe, (R)-β-phenylalanine]
- kcat^CoA (TycA-S563A [1]): 0.05 ± 0.00067 s⁻¹
- kcat^ATP/KM of TycA-S563A lower than the value for conversion to the CoA thioester (TycA-S563A [2]): about 46 fold
- kcat^ATP (TycA-S563A [2]; acyl-AMP formation, ATP at apparent saturation): 0.001 ± 0.00017 s⁻¹
